# From patent US20080161249A1, “Use of Novel Antibacterial Compounds” (SMITHKLINE BEECHAM CORPORATION, priority 2004, published 2008)
# Read-outs that look alike come from different tables or passages of the source.
# Columns and labels:
# S. aureus WCUH29 = test: MIC against S. aureus WCUH29, alone and with subinhibitory concentrations of a second agent; type: cell-based, Staphylococcus aureus; conditions: for MIC, antibiotic with 1 ug/mL (½ MIC) of Compound (1a) / MIC, antibiotic alone / MIC, antibiotic with 0.5 ug/mL (¼ MIC) of Compound (1a) / fold decrease MIC, antibiotic with 0.5 ug/mL (¼ MIC) of Compound (1a) / fold decrease MIC, antibiotic with 1 ug/mL (½ MIC) of Compound (1a): S. aureus WCUH29; for MIC, antibiotic with 1 ug/mL (½ MIC) of Compound (1a) / fold decrease MIC, antibiotic with 1 ug/mL (½ MIC) of Compound (1a): +1 ug/mL Compound (1a); for MIC, antibiotic alone: single agent; for decrease of MIC by subinhibitory concentrations of Compound (1a): S. aureus, Example 3; for MIC: Staphylococcus aureus, WCUH29, S. aureus WCUH29, no second agent, read-out: MIC, single agent; for MIC, antibiotic with 0.5 ug/mL (¼ MIC) of Compound (1a) / fold decrease MIC, antibiotic with 0.5 ug/mL (¼ MIC) of Compound (1a): +0.5 ug/mL Compound (1a)
# S. aureus strain PK1 = test: MIC against S. aureus strain PK1, alone and in combination; type: cell-based, Staphylococcus aureus
# Source text: (§1) Subinhibitory Concentrations of PDF Inhibitors Decrease the MICs of Macrolides against Representative S. aureus Strains
# (§2) Subinhibitory Concentrations of Macrolides Decrease the MICs of PDF Inhibitors against Representative S. aureus Strains
# S. aureus strain Smith = test: MIC against S. aureus strain Smith, alone and in combination; type: cell-based, Staphylococcus aureus
# S. aureus strain RN4220 = test: MIC against S. aureus strain RN4220, alone and in combination; type: cell-based, Staphylococcus aureus
# S. aureus strain Oxford = test: MIC against S. aureus strain Oxford, alone and in combination; type: cell-based, Staphylococcus aureus
# Source text: as §1, §2
# S. pneumoniae 1629 = test: MIC against S. pneumoniae 1629, alone and with subinhibitory concentrations of a second agent; type: cell-based, Streptococcus pneumoniae; conditions: for MIC, antibiotic with 0.06 ug/mL (¼ MIC) of Compound (1b) / MIC, antibiotic alone / fold decrease MIC, antibiotic with 0.06 ug/mL (¼ MIC) of Compound (1b) / MIC, antibiotic with […] (½ MIC) of Compound (1b) / fold decrease MIC, antibiotic with […] (½ MIC) of Compound (1b) / Compound (1b) fold decrease MIC: S. pneumoniae 1629; for MIC, antibiotic with 0.06 ug/mL (¼ MIC) of Compound (1b) / fold decrease MIC, antibiotic with 0.06 ug/mL (¼ MIC) of Compound (1b): +0.06 ug/mL Compound (1b); for MIC, antibiotic alone: single agent; for MIC: Streptococcus pneumoniae, 1629, S. pneumoniae 1629
# H. influenzae Q1 = test: MIC against H. influenzae Q1, alone and with subinhibitory concentrations of a second agent; type: cell-based, Haemophilus influenzae;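 also: combinations paired PDF inhibitors with macrolides, one class added below its own MIC to test whether the MIC of the other class dropped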
# [1] = Staphylococcus aureus, macrolide alone, read-out: MIC, −Compound (1a)
# [2] = no second agent, read-out: MIC, single agent
# [3] = H. influenzae Q1, +0.5 ug/mL Compound (1a)
# [4] = H. influenzae Q1, single agent (Example 7)
# [5] = H. influenzae Q1, +1 ug/mL Compound (1a)
# [6] = H. influenzae Q1, +0.25 ug/m Azithromycin
# [7] = H. influenzae Q1, +0.5 ug/mL Azithromycin
compound,measurement,setting,value
"CC[C@H]1OC(=O)[C@H](C)[C@@H](O[C@H]2C[C@@](C)(OC)[C@@H](O)[C@H](C)O2)[C@H](C)[C@@H](O[C@@H]2O[C@H](C)C[C@H](N(C)C)[C@H]2O)[C@](C)(O)C[C@@H](C)CN(C)[C@H](C)[C@@H](O)[C@]1(C)O [Azithromycin, azithromycin]","MIC, antibiotic with 1 ug/mL (½ MIC) of Compound (1a)",S. aureus WCUH29,0.03 µg/mL
same,"MIC, antibiotic alone",S. aureus WCUH29,1 µg/mL
same,decrease of MIC by subinhibitory concentrations of Compound (1a),S. aureus WCUH29,8-32 fold
same,MIC,S. aureus WCUH29,1 µg/mL
same,MIC,S. aureus strain PK1; [1],> 64 µg/mL
same,"MIC, +Compound (1a) [¼ × MIC]",S. aureus strain PK1; with ¼ × MIC of Compound (1a),32 µg/mL
same,"MIC, +Compound (1a) [½ × MIC]",S. aureus strain PK1; with ½ × MIC of Compound (1a),16 µg/mL
same,MIC,S. aureus strain Smith; [1],1 µg/mL
same,"MIC, +Compound (1a) [¼ × MIC]",S. aureus strain Smith; with ¼ × MIC of Compound (1a),0.25 µg/mL
same,MIC,S. aureus strain RN4220; [1],1 µg/mL
same,"MIC, +Compound (1a) [¼ × MIC]",S. aureus strain RN4220; with ¼ × MIC of Compound (1a),0.25 µg/mL
same,MIC,S. aureus strain Oxford; [1],0.5 µg/mL
same,"MIC, +Compound (1a) [¼ × MIC]",S. aureus strain Oxford; with ¼ × MIC of Compound (1a),0.25 µg/mL
same,"MIC, +Compound (1a) [½ × MIC]",S. aureus strain Oxford; with ½ × MIC of Compound (1a),0.06 µg/mL
same,decrease of MIC by subinhibitory concentrations of Compound (1b),S. pneumoniae 1629; S. pneumoniae,2-8 fold
same,"MIC, antibiotic with 0.06 ug/mL (¼ MIC) of Compound (1b)",S. pneumoniae 1629,0.016 µg/mL
same,"MIC, antibiotic alone",S. pneumoniae 1629,0.03 µg/mL
same,MIC,S. pneumoniae 1629; [2],0.03 µg/mL
same,"MIC, antibiotic with 0.5 ug/mL (¼ MIC) of Compound (1a)",H. influenzae Q1; [3],0.25 µg/mL
same,"MIC, antibiotic alone",H. influenzae Q1; [4],1 µg/mL
"O=C(O)c1cn(C2CC2)c2cc(N3CCNCC3)c(F)cc2c1=O [Ciprofloxacin, ciprofloxacin]","MIC, antibiotic with 0.5 ug/mL (¼ MIC) of Compound (1a)",S. aureus WCUH29,0.25 µg/mL
same,"fold decrease MIC, antibiotic with 0.5 ug/mL (¼ MIC) of Compound (1a)",S. aureus WCUH29,[0] fold
same,"MIC, antibiotic with 1 ug/mL (½ MIC) of Compound (1a)",S. aureus WCUH29,0.25 µg/mL
same,"fold decrease MIC, antibiotic with 1 ug/mL (½ MIC) of Compound (1a)",S. aureus WCUH29,[0] fold
same,"MIC, antibiotic alone",S. aureus WCUH29,0.25 µg/mL
same,decrease of MIC by subinhibitory concentrations of Compound (1a),S. aureus WCUH29,no effect
same,MIC,S. aureus WCUH29,0.25 µg/mL
same,decrease of MIC by subinhibitory concentrations of Compound (1b),S. pneumoniae 1629; S. pneumoniae,no effect
same,"MIC, antibiotic with 0.06 ug/mL (¼ MIC) of Compound (1b)",S. pneumoniae 1629,0.5 µg/mL
same,"fold decrease MIC, antibiotic with 0.06 ug/mL (¼ MIC) of Compound (1b)",S. pneumoniae 1629,[0] fold
same,"MIC, antibiotic with […] (½ MIC) of Compound (1b)",S. pneumoniae 1629,0.5 µg/mL
same,"fold decrease MIC, antibiotic with […] (½ MIC) of Compound (1b)",S. pneumoniae 1629,[0] fold
same,"MIC, antibiotic alone",S. pneumoniae 1629,0.5 µg/mL
same,MIC,S. pneumoniae 1629; [2],0.5 µg/mL
same,"MIC, antibiotic with 0.5 ug/mL (¼ MIC) of Compound (1a)",H. influenzae Q1; [3],0.008 µg/mL
same,"fold decrease MIC, antibiotic with 0.5 ug/mL (¼ MIC) of Compound (1a)",H. influenzae Q1; [3],[0] fold
same,"MIC, antibiotic with 1 ug/mL (½ MIC) of Compound (1a)",H. influenzae Q1; [5],0.008 µg/mL
same,"fold decrease MIC, antibiotic with 1 ug/mL (½ MIC) of Compound (1a)",H. influenzae Q1; [5],[0] fold
same,"MIC, antibiotic alone",H. influenzae Q1; [4],0.008 µg/mL
same,decrease of MIC by subinhibitory concentrations of Compound (1a),"H. influenzae Q1; H. influenzae, text summary of Example 7",no effect
"O=CN(O)C[C@@H](CC1CCCC1)C(=O)NNc1nc(N2CCOCC2)cc(C(F)(F)F)n1 [Compound (1b), N-hydroxy-N-((2R)-2-(cyclopentylmethyl)-3-{N′-[4-(morpholin-4-yl)-6-(trifluoromethyl)-pyrimidin-2-yl]-hydrazino}-3-oxopropyl)-formamide]",decrease of MIC by subinhibitory concentrations of azithromycin,S. pneumoniae 1629; S. pneumoniae,4-16 fold
same,decrease of MIC by subinhibitory concentrations of erythromycin,S. pneumoniae 1629; S. pneumoniae,8-32 fold
same,effect of subinhibitory concentrations of ciprofloxacin on antibacterial potency,S. pneumoniae 1629; S. pneumoniae,no effect
same,effect of subinhibitory concentrations of mupirocin on antibacterial potency,S. pneumoniae 1629; S. pneumoniae,no effect
same,Compound (1b) fold decrease MIC,S. pneumoniae 1629; +Azithromycin 0.008 μg/ml {¼ × MIC},[4] fold
same,Compound (1b) fold decrease MIC,S. pneumoniae 1629; +Azithromycin […] {½ × MIC},[16] fold
same,Compound (1b) fold decrease MIC,S. pneumoniae 1629; +Ciprofloxacin 0.25 μg/ml {½ × MIC},[0] fold
same,Compound (1b) fold decrease MIC,S. pneumoniae 1629; +Ciprofloxacin […] {¼ × MIC},[0] fold
same,Compound (1b) fold decrease MIC,S. pneumoniae 1629; +Erythromycin 0.008 μg/ml {¼ × MIC},[8] fold
same,Compound (1b) fold decrease MIC,S. pneumoniae 1629; +Erythromycin […] {½ × MIC},[32] fold
same,Compound (1b) fold decrease MIC,S. pneumoniae 1629; +Mupirocin 0.25 μg/ml {½ × MIC},[0] fold
same,Compound (1b) fold decrease MIC,S. pneumoniae 1629; +Mupirocin […] {¼ × MIC},[0] fold
same,MIC,"S. pneumoniae 1629; +Azithromycin 0.008 μg/ml {¼ × MIC}, read-out: Compound (1b) MIC",0.06 µg/mL
same,MIC,"S. pneumoniae 1629; +Azithromycin […] {½ × MIC}, read-out: Compound (1b) MIC",0.016 µg/mL
same,MIC,"S. pneumoniae 1629; +Ciprofloxacin 0.25 μg/ml {½ × MIC}, read-out: Compound (1b) MIC",0.25 µg/mL
same,MIC,"S. pneumoniae 1629; +Ciprofloxacin […] {¼ × MIC}, read-out: Compound (1b) MIC",0.25 µg/mL
same,MIC,"S. pneumoniae 1629; +Erythromycin 0.008 μg/ml {¼ × MIC}, read-out: Compound (1b) MIC",0.03 µg/mL
same,MIC,"S. pneumoniae 1629; +Erythromycin […] {½ × MIC}, read-out: Compound (1b) MIC",0.008 µg/mL
same,MIC,"S. pneumoniae 1629; +Mupirocin 0.25 μg/ml {½ × MIC}, read-out: Compound (1b) MIC",0.25 µg/mL
same,MIC,"S. pneumoniae 1629; +Mupirocin […] {¼ × MIC}, read-out: Compound (1b) MIC",0.25 µg/mL
same,MIC,S. pneumoniae 1629; [2],0.25 µg/mL
"CCCCC[C@H](CN(O)C=O)C(=O)NNc1nnc2cccc(C)c2n1 [Compound (1c), N-hydroxy((2R)-2-{[2-(5-methyl-1,2,4-benzotriazin-3-yl)hydrazino]carbonyl}heptyl)formamide]","MIC, antibiotic with 0.25 ug/m (¼ MIC) of Azithromycin",H. influenzae Q1; [6],0.5 µg/mL
same,"fold decrease MIC, antibiotic with 0.25 ug/m (¼ MIC) of Azithromycin",H. influenzae Q1; [6],[2] fold
same,"MIC, antibiotic with 0.5 ug/mL (½ MIC) of Azithromycin",H. influenzae Q1; [7],0.125 µg/mL
same,"fold decrease MIC, antibiotic with 0.5 ug/mL (½ MIC) of Azithromycin",H. influenzae Q1; [7],[8] fold
same,"MIC, antibiotic alone","H. influenzae Q1; H. influenzae Q1, single agent (Example 8)",1 µg/mL
"CC[C@H]1OC(=O)[C@H](C)[C@@H](O[C@H]2C[C@@](C)(OC)[C@@H](O)[C@H](C)O2)[C@H](C)[C@@H](O[C@@H]2O[C@H](C)C[C@H](N(C)C)[C@H]2O)[C@](C)(O)C[C@@H](C)C(=O)[C@H](C)[C@@H](O)[C@]1(C)O [Erythromycin, erythromycin]","MIC, antibiotic with 1 ug/mL (½ MIC) of Compound (1a)",S. aureus WCUH29,0.016 µg/mL
same,"MIC, antibiotic alone",S. aureus WCUH29,0.25 µg/mL
same,decrease of MIC by subinhibitory concentrations of Compound (1a),S. aureus WCUH29,2-16 fold
same,MIC,S. aureus WCUH29,0.25 µg/mL
same,decrease of MIC by subinhibitory concentrations of Compound (1b),S. pneumoniae 1629; S. pneumoniae,4-16 fold
same,"MIC, antibiotic with 0.06 ug/mL (¼ MIC) of Compound (1b)",S. pneumoniae 1629,0.008 µg/mL
same,"MIC, antibiotic alone",S. pneumoniae 1629,0.03 µg/mL
same,MIC,S. pneumoniae 1629; [2],0.03 µg/mL
same,"MIC, antibiotic with 0.5 ug/mL (¼ MIC) of Compound (1a)",H. influenzae Q1; [3],2 µg/mL
same,"MIC, antibiotic with 1 ug/mL (½ MIC) of Compound (1a)",H. influenzae Q1; [5],1 µg/mL
same,"MIC, antibiotic alone",H. influenzae Q1; [4],8 µg/mL
"C/C(=C\C(=O)OCCCCCCCCC(=O)O)C[C@@H]1OC[C@H](C[C@@H]2O[C@H]2[C@@H](C)[C@H](C)O)[C@@H](O)[C@H]1O [Mupirocin, mupirocin]","MIC, antibiotic with 0.5 ug/mL (¼ MIC) of Compound (1a)",S. aureus WCUH29,0.125 µg/mL
same,"fold decrease MIC, antibiotic with 0.5 ug/mL (¼ MIC) of Compound (1a)",S. aureus WCUH29,[0] fold
same,"MIC, antibiotic with 1 ug/mL (½ MIC) of Compound (1a)",S. aureus WCUH29,0.125 µg/mL
same,"fold decrease MIC, antibiotic with 1 ug/mL (½ MIC) of Compound (1a)",S. aureus WCUH29,[0] fold
same,"MIC, antibiotic alone",S. aureus WCUH29,0.125 µg/mL
same,decrease of MIC by subinhibitory concentrations of Compound (1a),S. aureus WCUH29,no effect
same,decrease of MIC by subinhibitory concentrations of Compound (1b),S. pneumoniae 1629; S. pneumoniae,no effect
same,"MIC, antibiotic with 0.06 ug/mL (¼ MIC) of Compound (1b)",S. pneumoniae 1629,0.5 µg/mL
same,"fold decrease MIC, antibiotic with 0.06 ug/mL (¼ MIC) of Compound (1b)",S. pneumoniae 1629,[0] fold
same,"MIC, antibiotic with […] (½ MIC) of Compound (1b)",S. pneumoniae 1629,0.5 µg/mL
same,"fold decrease MIC, antibiotic with […] (½ MIC) of Compound (1b)",S. pneumoniae 1629,[0] fold
same,"MIC, antibiotic alone",S. pneumoniae 1629,0.5 µg/mL
same,MIC,S. pneumoniae 1629; [2],0.5 µg/mL
